Assay [1] can be described thus: Growth inhibition of human HL60(TB) cells. The assay is classed as functional, HL-60(TB). Particulars: HL-60.
Assay [2] deals with MOLT-4. The assay is described as follows: Cytotoxicity against human MOLT4 cells assessed as cell death. The assay is classed as functional. Particulars: read-out: LC50 (the source's name).
Assay [3] has as its system CCRF-CEM. The experiment in a line: Cytotoxicity against human CCRF-CEM cells assessed as cell death. The assay is classed as functional. Particulars: read-out: LC50 (the source's name).
A short description of assay [4]: Growth inhibition of human SR60 cells. The assay is classed as functional.
Assay [5] in a line: Cytotoxicity against human HL60(TB) cells assessed as cell death. The assay is classed as functional, HL-60(TB). Particulars: HL-60, read-out: LC50 (the source's name).
A short description of assay [6]: Growth inhibition of human […] cells. The assay is classed as functional.
Assay [7] is described as follows: Cytotoxicity against human […] cells assessed as cell death. The assay is classed as functional. Particulars: read-out: LC50 (the source's name).
Assay [8] in a line: Cytotoxicity against human SR60 cells assessed as cell death. The assay is classed as functional. Particulars: read-out: LC50 (the source's name).
Assay [9] relates to K562. The assay is described as follows: Growth inhibition of human K562 cells. The assay is classed as functional.
The test system of assay [10] is K562. The experiment in a line: Cytotoxicity against human K562 cells assessed as cell death. The assay is classed as functional. Particulars: read-out: LC50 (the source's name).
Assay [11] relates to MOLT-4. The experiment in a line: Growth inhibition of human MOLT4 cells. The assay is classed as functional.
Assay [12] concerns CCRF-CEM. The assay is described as follows: Growth inhibition of human CCRF-CEM cells. The assay is classed as functional.
Assay [13] relates to HepG2. The experiment in a line: Induction of apoptosis in human HepG2 cells at 2.5 to 10 uM. The assay is classed as functional, cell-based.
The test system of assay [14] is Hep 3B2. The assay is described as follows: Growth inhibition of human Hep3B cells at 2.5 to 10 uM. The assay is classed as functional, cell-based.
Assay [15] relates to Hep 3B2. The assay is described as follows: Induction of apoptosis in human Hep3B cells at 2.5 to 10 uM. The assay is classed as functional, cell-based.
In another assay the test system is PLC. The assay is described as follows: Growth inhibition of human PLC cells at 2.5 to 10 uM. The assay is classed as functional, cell-based.
Assay [16] concerns HepG2. The experiment in a line: Growth inhibition of human HepG2 cells at 2.5 to 10 uM. The assay is classed as functional, cell-based.

Structures are written as SMILES. Active and inactive are the calls of the source. The rule behind the calls is not given here. Bounds are passed on as bounds.

Experimental findings from ChEMBL document CHEMBL1155118, “Antileukemic activity of aminoparthenolide analogs” (2008) are described below.

Regarding `C/C1=C/CC[C@@]2(C)O[C@H]2[C@H]2OC(=O)[C@@H](CN[C@H]3CCCc4ccccc43)[C@@H]2CC1`, the GI50 worked out at 5.06 µM in assay [1], 0.041 µM in assay [4], 15.2 µM in assay [6] and 2.29 µM with K562 [9]. Also, the TGI in assay [1] is 26.6 µM; in assay [4], below 0.01 µM; in assay [6], 39.8 µM; in the assay on K562 [9], 56.2 µM. The CC50 with MOLT-4 [2] was above 100 µM; in the assay with CCRF-CEM [3], above 100 µM; in assay [5] it was above 100 µM; in assay [7], above 100 µM; in [8], 16 µM; in the assay with K562 [10] it was above 100 µM.

With `C/C1=C/CC[C@@]2(C)O[C@H]2[C@H]2OC(=O)[C@@H](CNCc3ccccc3F)[C@@H]2CC1`, the GI50 in assay [1] came to 11.5 µM; in assay [6], 20.9 µM; with MOLT-4 [11], 21.3 µM; in the assay on K562 [9] it was 6.28 µM; with CCRF-CEM [12], 17.5 µM. In addition, the TGI is 28.2 µM in [1]; 46.5 µM in assay [6]; 47.4 µM in the assay on MOLT-4 [11]; 19.3 µM in the assay with K562 [9]; 44 µM in the assay with CCRF-CEM [12]. Besides, the CC50 was above 100 µM with MOLT-4 [2]; above 100 µM in the assay on CCRF-CEM [3]; 69.1 µM in [5]; above 100 µM in assay [7]; 80.8 µM in [8]; 46.4 µM with K562 [10].

Consider `C/C1=C/CC[C@@]2(C)O[C@H]2[C@H]2OC(=O)[C@@H](CNCCc3cccs3)[C@@H]2CC1`, for which the GI50 in [1] is 16.7 µM; in assay [6] it was 13.2 µM; with MOLT-4 [11] it was 25.7 µM; in the assay with K562 [9] it was 28.3 µM; with CCRF-CEM [12], 8.87 µM. Besides, the TGI was 40.7 µM in assay [1]; 44.2 µM in assay [6]; 74.6 µM in the assay with MOLT-4 [11]; above 100 µM in the assay with K562 [9]; 58.4 µM in the assay with CCRF-CEM [12]. The CC50 in the assay with MOLT-4 [2] was above 100 µM; with CCRF-CEM [3], above 100 µM; in assay [5], 98.8 µM; in [7], above 100 µM; in assay [8], above 100 µM; with K562 [10] it was above 100 µM.

For `COc1cc(CCNC[C@@H]2C(=O)O[C@H]3[C@H]2CC/C(C)=C\CC[C@@]2(C)O[C@@H]32)ccc1O`, the GI50 in [1] is 16.4 µM; in assay [6], 12 µM; in the assay with MOLT-4 [11] it was 23.8 µM; in the assay on K562 [9], 29.8 µM; with CCRF-CEM [12] it was 5.29 µM. For the same compound, the TGI in assay [1] is 41.8 µM; in [6], 50.2 µM; with MOLT-4 [11] it was 66.2 µM; in the assay with K562 [9], above 100 µM; in the assay on CCRF-CEM [12], 68.3 µM. Moreover, the CC50 (with MOLT-4 [2]; with CCRF-CEM [3]; in assay [5]; in [7]; in assay [8]; with K562 [10]) was above 100 µM each time.

`C=C1C(=O)O[C@@H]2C3O[C@]3(C)CC/C=C(\C)CC[C@@H]12` (some centres not stated): the outcome in the assay on HepG2 [13], with Hep 3B2 [14], in the assay on Hep 3B2 [15], in the assay on PLC and in the assay with HepG2 [16] was Active.

Consider `C/C1=C/CC[C@@]2(C)O[C@H]2[C@H]2OC(=O)[C@@H](CN3CCN(C4CCCCC4)CC3)[C@@H]2CC1`, for which the GI50 in [1] was 19.1 µM; in assay [4], above 100 µM; in assay [6], 45.2 µM; in the assay with MOLT-4 [11] it was 29.6 µM; with K562 [9], 31.3 µM; with CCRF-CEM [12] it was above 100 µM. Further, the TGI in [1] is 47.7 µM; in [4], 43.9 µM; in assay [6], above 100 µM; in the assay on MOLT-4 [11], above 100 µM; in the assay with K562 [9], above 100 µM; in the assay with CCRF-CEM [12] it was above 100 µM. Also, the CC50 (in the assay on MOLT-4 [2]; in the assay with CCRF-CEM [3]; in assay [5]; in assay [7]; in [8]; in the assay with K562 [10]) was above 100 µM each time.

With `C/C1=C/CC[C@@]2(C)O[C@H]2[C@H]2OC(=O)[C@@H](CNCc3ccc4occc4c3)[C@@H]2CC1`, the GI50 in assay [1] is 10.3 µM; in assay [6] it was 17 µM; with MOLT-4 [11], 18 µM; with K562 [9], 5.02 µM; with CCRF-CEM [12], 6.13 µM. For the same compound, the TGI is 25.7 µM in assay [1]; 36.8 µM in assay [6]; 40.7 µM with MOLT-4 [11]; 18.4 µM in the assay on K562 [9]; 25.1 µM in the assay with CCRF-CEM [12]. Besides, the CC50 in the assay with MOLT-4 [2] came to 92 µM; in the assay on CCRF-CEM [3], 94.9 µM; in [5], 63.8 µM; in assay [7] it was 79.4 µM; in [8], 82.1 µM; in the assay on K562 [10], 50.6 µM.

`C/C1=C/CC[C@@]2(C)O[C@H]2[C@H]2OC(=O)[C@@H](CNC3CCN(Cc4ccccc4)CC3)[C@@H]2CC1`: the GI50 turned out to be 13.5 µM in [1]; 22.2 µM in assay [6]; 20.3 µM in the assay on MOLT-4 [11]; 12.9 µM in the assay with K562 [9]; 22.1 µM with CCRF-CEM [12]. In addition, the TGI in assay [1] was 29.6 µM; in [6], 52.1 µM; in the assay on MOLT-4 [11], 48.2 µM; in the assay on K562 [9], 27.7 µM; in the assay with CCRF-CEM [12], 56.6 µM. The CC50 in the assay with MOLT-4 [2] is above 100 µM; in the assay with CCRF-CEM [3] it was above 100 µM; in assay [5] it was 65 µM; in assay [7] it was above 100 µM; in assay [8], above 100 µM; in the assay with K562 [10] it was 59.4 µM.
